Experimental data: patent US8956594B2, “Fluoride-calcium compositions, dental products, and methods for providing dental fluoride” (ADA Foundation, priority 2005, dated 2015)

Details: used in the absence of phosphate, in some trials
Text: The anion may be any suitable stabilizing anion, by which is contemplated to be an anion the inclusion of which results in a composition that is stable for storage and transport as against precipitation of calcium fluoride, the composition not being stable (or as stable) for storage and transport as against precipitation of calcium fluoride in the absence of the anion. In some embodiments, the anion contains the O—PO—O moiety. […] Plural anions may be employed in a single composition.

In the case of O=P(O)(O)OP(=O)(O)O [pyrophosphate], the “effectiveness as stabilizing anion” value is reported as “not to be effective”.
